How the values were obtained:
Format in all cases: cell-based
human TLR8 = target: T1, human TLR8 (Homo sapiens, UniProt Q9NR97); experiment: TLR8 inhibition reporter assay (HEK-Blue cells, SEAP reporter, R848 stimulation); conditions: HEK-Blue cells overexpressing human TLR8, SEAP reporter, R848 15.9 μM
T1 construct: host or cells: HEK-Blue cells
T1 sequence (Q9NR97 27-1041): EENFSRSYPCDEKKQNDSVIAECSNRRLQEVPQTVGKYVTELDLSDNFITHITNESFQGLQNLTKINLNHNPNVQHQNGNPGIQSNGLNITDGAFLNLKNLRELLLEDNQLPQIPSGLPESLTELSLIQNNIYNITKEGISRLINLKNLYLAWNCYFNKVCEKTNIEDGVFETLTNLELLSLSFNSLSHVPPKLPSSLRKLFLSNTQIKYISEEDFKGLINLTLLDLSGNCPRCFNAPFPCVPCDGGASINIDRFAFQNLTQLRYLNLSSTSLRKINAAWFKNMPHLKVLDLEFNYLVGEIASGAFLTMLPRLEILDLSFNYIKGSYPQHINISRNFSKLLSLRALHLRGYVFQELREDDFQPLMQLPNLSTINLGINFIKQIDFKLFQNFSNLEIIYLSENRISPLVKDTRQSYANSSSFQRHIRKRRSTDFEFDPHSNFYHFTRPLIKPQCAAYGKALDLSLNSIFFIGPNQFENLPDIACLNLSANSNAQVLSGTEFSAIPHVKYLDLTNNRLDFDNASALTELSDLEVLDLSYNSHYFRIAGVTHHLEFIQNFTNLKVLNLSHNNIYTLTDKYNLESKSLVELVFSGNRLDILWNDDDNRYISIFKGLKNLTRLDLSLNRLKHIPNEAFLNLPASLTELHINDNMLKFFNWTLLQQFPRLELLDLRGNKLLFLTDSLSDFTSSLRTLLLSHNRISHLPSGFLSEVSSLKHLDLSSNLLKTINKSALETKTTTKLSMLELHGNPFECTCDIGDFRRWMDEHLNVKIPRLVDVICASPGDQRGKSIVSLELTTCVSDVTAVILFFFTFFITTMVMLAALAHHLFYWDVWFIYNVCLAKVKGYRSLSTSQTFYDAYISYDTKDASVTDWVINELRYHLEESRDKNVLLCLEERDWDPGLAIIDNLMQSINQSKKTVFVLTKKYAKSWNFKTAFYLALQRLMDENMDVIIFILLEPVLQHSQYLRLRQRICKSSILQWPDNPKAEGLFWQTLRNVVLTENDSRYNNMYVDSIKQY
Method in brief: (§1)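 SEAP readout after 22 h agonist exposure at 37 °C; final agonist levels were 7.5 μM gardiquimod (TLR7), 15.9 μM R848 (TLR8) and 5 nM ODN2006 (TLR9). Inhibitors, spanning 0.05 nM to 50 μM final, were applied 30 min beforehand.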

human TLR9 = target: T2, human TLR9 (Homo sapiens, UniProt Q9NR96); experiment: TLR9 inhibition reporter assay (HEK-Blue cells, SEAP reporter, ODN2006 stimulation); conditions: HEK-Blue cells overexpressing human TLR9, SEAP reporter, ODN2006 5 nM
T2 construct: host or cells: HEK-Blue cells
T2 sequence (Q9NR96 26-1032): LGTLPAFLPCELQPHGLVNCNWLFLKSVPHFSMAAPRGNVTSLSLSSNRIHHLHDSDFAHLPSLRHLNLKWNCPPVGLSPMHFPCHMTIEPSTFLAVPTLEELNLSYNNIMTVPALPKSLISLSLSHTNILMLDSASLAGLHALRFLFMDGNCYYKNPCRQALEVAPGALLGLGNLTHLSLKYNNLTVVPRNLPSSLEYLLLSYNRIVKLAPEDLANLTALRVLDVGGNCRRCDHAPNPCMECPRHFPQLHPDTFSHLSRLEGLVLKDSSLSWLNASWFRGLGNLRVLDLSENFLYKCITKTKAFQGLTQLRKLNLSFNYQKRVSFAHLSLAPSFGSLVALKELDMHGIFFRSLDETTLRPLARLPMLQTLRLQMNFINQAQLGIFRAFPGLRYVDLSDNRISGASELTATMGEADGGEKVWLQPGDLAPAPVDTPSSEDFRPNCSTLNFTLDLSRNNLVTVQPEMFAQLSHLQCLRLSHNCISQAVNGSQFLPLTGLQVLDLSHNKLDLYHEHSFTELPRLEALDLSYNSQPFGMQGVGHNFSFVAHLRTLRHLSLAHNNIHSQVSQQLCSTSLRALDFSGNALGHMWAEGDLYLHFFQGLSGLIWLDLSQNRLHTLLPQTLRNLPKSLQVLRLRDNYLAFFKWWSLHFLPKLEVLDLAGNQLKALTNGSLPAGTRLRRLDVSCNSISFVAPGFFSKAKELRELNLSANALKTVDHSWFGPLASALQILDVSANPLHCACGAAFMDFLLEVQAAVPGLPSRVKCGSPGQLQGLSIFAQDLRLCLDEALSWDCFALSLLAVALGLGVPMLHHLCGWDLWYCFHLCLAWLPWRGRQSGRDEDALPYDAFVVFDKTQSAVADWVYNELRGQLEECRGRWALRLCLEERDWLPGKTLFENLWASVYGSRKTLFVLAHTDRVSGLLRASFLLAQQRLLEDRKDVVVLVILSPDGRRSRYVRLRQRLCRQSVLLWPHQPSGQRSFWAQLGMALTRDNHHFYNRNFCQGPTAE
Method in brief: as §1

human TLR7 = target: T3, human TLR7 (Homo sapiens, UniProt Q9NYK1); experiment: TLR7 inhibition reporter assay (HEK-Blue cells, SEAP reporter, gardiquimod stimulation); conditions: HEK-Blue cells overexpressing human TLR7, SEAP reporter, gardiquimod 7.5 μM
T3 construct: host or cells: HEK-Blue cells
T3 sequence (Q9NYK1 27-1049): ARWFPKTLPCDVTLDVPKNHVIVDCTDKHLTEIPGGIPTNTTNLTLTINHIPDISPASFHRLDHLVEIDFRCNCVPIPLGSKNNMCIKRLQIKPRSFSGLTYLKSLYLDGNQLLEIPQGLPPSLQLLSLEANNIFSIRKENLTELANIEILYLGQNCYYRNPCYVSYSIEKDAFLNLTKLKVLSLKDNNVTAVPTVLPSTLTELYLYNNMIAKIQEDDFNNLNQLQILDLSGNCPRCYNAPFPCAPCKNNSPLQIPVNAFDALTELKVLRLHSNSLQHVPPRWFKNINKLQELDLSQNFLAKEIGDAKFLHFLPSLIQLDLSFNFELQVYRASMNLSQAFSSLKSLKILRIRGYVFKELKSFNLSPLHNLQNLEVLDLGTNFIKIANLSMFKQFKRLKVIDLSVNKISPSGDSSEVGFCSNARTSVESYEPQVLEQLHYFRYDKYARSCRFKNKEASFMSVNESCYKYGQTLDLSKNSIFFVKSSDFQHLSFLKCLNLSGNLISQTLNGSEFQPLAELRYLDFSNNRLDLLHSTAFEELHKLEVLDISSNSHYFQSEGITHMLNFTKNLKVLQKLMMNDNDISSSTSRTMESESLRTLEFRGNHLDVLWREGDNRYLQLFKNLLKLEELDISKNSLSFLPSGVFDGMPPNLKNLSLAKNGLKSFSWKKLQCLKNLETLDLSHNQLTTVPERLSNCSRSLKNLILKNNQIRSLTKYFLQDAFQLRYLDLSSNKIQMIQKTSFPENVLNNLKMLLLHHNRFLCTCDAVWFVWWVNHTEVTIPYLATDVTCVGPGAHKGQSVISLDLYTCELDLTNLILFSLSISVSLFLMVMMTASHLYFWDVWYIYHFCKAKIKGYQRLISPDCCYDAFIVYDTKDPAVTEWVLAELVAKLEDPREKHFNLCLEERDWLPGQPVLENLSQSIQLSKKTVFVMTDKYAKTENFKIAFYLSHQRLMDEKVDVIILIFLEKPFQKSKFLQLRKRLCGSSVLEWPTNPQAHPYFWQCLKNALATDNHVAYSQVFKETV
Method in brief: as §1

Compound	IC50 (human TLR8) [nM]	IC50 (human TLR9) [nM]	IC50 (human TLR7) [nM]
Cc1c(-c2[nH]c3ccc(C4CN(CC(C)C)C4)cc3c2C(C)C)cn2cnnc2c1C [Example 549]	9.3	2190	6
COCCN1CC(c2ccc3[nH]c(-c4cn5cnnc5c(C)c4C)c(C(C)C)c3c2)C1 [Example 550]	13	13600	17
Cc1c(-c2[nH]c3ccc(C4CN(Cc5c[nH]nn5)C4)cc3c2C(C)C)cn2ncnc2c1C [Example 551]	3.2	3350	2
CNC(=O)CN1CC(c2ccc3[nH]c(-c4cn5ncnc5c(C)c4C)c(C(C)C)c3c2)C1 [Example 552]	3.4	5570	4
Cc1c(-c2[nH]c3ccc(C4CN(CC#N)C4)cc3c2C(C)C)cn2ncnc2c1C [Example 553]	7.2	32300	4
Cc1c(-c2[nH]c3ccc(C4CN(CCCC(F)(F)F)C4)cc3c2C(C)C)cn2cnnc2c1C [Example 554]	15	5200	18
Cc1c(-c2[nH]c3ccc(C4CN(C(C)C)C4)cc3c2C(C)C)cn2ncnc2c1C [Example 555]	10	7730	9
Cc1c(-c2[nH]c3ccc(C4CN(CC(=O)N(C)C)C4)cc3c2C(C)C)cn2ncnc2c1C [Example 556]	4.9	5120	6
Cc1c(-c2[nH]c3ccc(C4CN(CC(C)(C)O)C4)cc3c2C(C)C)cn2ncnc2c1C [Example 557]	3.6	6750	9
Cc1c(-c2[nH]c3ccc(C4CC5CN(CC#N)CC5C4)cc3c2C(C)C)cn2cnnc2c1C (stereo not drawn) [Example 558]	117	3720	6
Cc1c(-c2[nH]c3ccc(C4CC5CN(C)CC5C4)cc3c2C(C)C)cn2cnnc2c1C (stereo not drawn) [Example 559]	9.2	2120	2
Cc1c(-c2[nH]c3ccc(C4CC5CN(C(C)C)CC5C4)cc3c2C(C)C)cn2cnnc2c1C (stereo not drawn) [Example 560]	27	2330	1
Cc1c(-c2[nH]c3ccc(C4CC5CN(CC6(C)COC6)CC5C4)cc3c2C(C)C)cn2cnnc2c1C (stereo not drawn) [Example 561]	25	4680	5
Cc1c(-c2[nH]c3ccc(C4CC5CN(C6CCOC6)CC5C4)cc3c2C(C)C)cn2cnnc2c1C (stereo not drawn) [Example 562]	28	3710	4
Cc1c(-c2[nH]c3ccc(C4CC5CN(C6CCOCC6)CC5C4)cc3c2C(C)C)cn2cnnc2c1C (stereo not drawn) [Example 563]	3130	38200	1270
Cc1c(-c2[nH]c3ccc(C4CN(C(=O)CN(C)C)C4)cc3c2C(C)C)cn2ncnc2c1C [Example 564]	7	7310	3
Cc1c(-c2[nH]c3ccc(C4CC(NCC(=O)N(C)C)C4)cc3c2C(C)C)cn2ncnc2c1C (stereo not drawn) [Example 566]	0.6	4450	1
Cc1c(-c2[nH]c3ccc(C4CC(NCC#N)C4)cc3c2C(C)C)cn2ncnc2c1C (stereo not drawn) [Example 567]	1.1	26700	2
COc1cc(-c2[nH]c3ccc(C4CC(N)C4)cc3c2C(C)C)cn2ncnc12 (stereo not drawn) [Example 568]	0.76	980	0.53
COc1cc(-c2[nH]c3ccc(C4CC(NC(=O)CN(C)C)C4)cc3c2C(C)C)cn2ncnc12 (stereo not drawn) [Example 569]	0.62	4550	0.32
COc1cc(-c2[nH]c3ccc(C4CC(NCC(=O)N(C)C)C4)cc3c2C(C)C)cn2ncnc12 (stereo not drawn) [Example 570]	0.9	3450	0.93
COc1cc(-c2[nH]c3ccc(C4CC(NCCS(C)(=O)=O)C4)cc3c2C(C)C)cn2ncnc12 (stereo not drawn) [Example 571]	0.33	2320	0.53
Cc1c(-c2[nH]c3ccc(C4CC(NCCS(C)(=O)=O)C4)cc3c2C(C)C)cn2ncnc2c1C (stereo not drawn) [Example 572]	0.31	4960	0.93
Cc1c(-c2[nH]c3ccc(C4CC(NC(=O)CN(C)C)C4)cc3c2C(C)C)cn2ncnc2c1C (stereo not drawn) [Example 573]	2.3	12600	3
Cc1c(-c2[nH]c3ccc(C4CC(N(C)C)C4)cc3c2C(C)C)cn2ncnc2c1C (stereo not drawn) [Example 574]	0.58	4250	1
Cc1c(-c2[nH]c3ccc(C4CC(NC5COC5)C4)cc3c2C(C)C)cn2ncnc2c1C (stereo not drawn) [Example 575]	1.1	22300	4
Cc1c(-c2[nH]c3ccc(C4CC(NC(=O)CN(C)C)C4)cc3c2C(C)C)cn2ncnc2c1C (stereo not drawn) [Example 578]	0.61	6440	0.59
